Where two headings read alike, the source gives them in different places.
Assays:
locomotor activity = test: SmartCage locomotor activity; settings: 24 hr
Description: Animals. […] Upon arrival at the facility, animals were group-housed (5/cage) with access to food and water ad libitum. Animals were maintained on a 12/12-hour light/dark cycle in a temperature—(22±2° C.) and humidity-(approx.35-50%) controlled room. Animals were numbered consecutively by tail ID marker in each home cage.
Locomotor Activity Monitoring. […] After the first day, animals were administered one of four doses (PO) of test article and monitored for the next 24 hours. The animal's activity during the monitored hours was quantified using the parameters of distance travelled, time active, and rearing activity.
SmartCage. After a washout period of at least 24 hours following a TST evaluation during which the animals were group-housed (5/cage), individual mice were placed into a freshly prepared home cage and their activity recorded simultaneously using the SmartCage™ system and a video camera placed above the SmartCage™ system.
Active wakefulness was defined as actively moving, rearing, and exploratory behaviors. […] Likewise, distance traveled in centimeters was obtained from the lower horizontal IR and calculated taking into account the animal's path. […] The calculated distance traveled (at any given time period, called ‘block’, or ‘total measuring period’) and speed were the two main parameters for locomotor activity. […]

immobility = test: Tail suspension test (TST)
Description: The tail suspension test is an experimental method used in scientific research to measure a state of being helpless in rodents, especially in mice. It is based on the observation that if a mouse is subjected to short term inescapable stress then the mouse will stop struggling. Immobility is quantified by measuring the amount of time lacking whole body activity.
The immobilized time in the last 4 min of the TST, which indicated depression-like behavior, was quantified using offline video manual scoring in a blinded manner.
Animals. Adult (7 to 8 weeks) male mice (C57Bl/6, Charles River Laboratories) were used in the study. Upon arrival, animals were group-housed (5/cage) with access to food and water ad libitum. Animals were maintained on a 12/12-hour light/dark cycle in a temperature—(22±2° C.) and humidity—(approx. 50%) controlled room. Animals were numbered consecutively by tail marks. Each cage was identified by a card indicating the study number, sex, animal numbers and date of birth.
Test article formulations were prepared fresh based on weight-to-volume in the vehicle on each dosing day. […] The appearance of the formulations was clear, with no precipitations. […] A vehicle group was included for comparison.
Monitoring. A piezoelectric sensor operated by the SmartCage system was utilized and video recording was conducted for scoring. After animals acclimated to the testing room, an individual mouse's tail was placed onto the piezoelectric sensor-board and the mouse was hung upside down, which signaled the immediate start of the recording of struggle activity, and it lasted for 6 min. The mouse was then taken off and returned to the home cage. The immobilized time, indicating depression-like behavior, was quantified using manual scoring of the video recordings for the period from 120 seconds to 360 seconds during TST. The percent immobility time was calculated: (immobility time/240 seconds)*100.
The immobilized time in the last 4 min of the TST, which indicates depression-like behavior, was quantified using offline video manual scoring in a blinded manner.
Animals. Adult (8 weeks, approximately 20-25 g) male mice (C57Bl/6, Vendor: Charles River Laboratories) were used in the study. Upon arrival, animals were group-housed (5/cage) with access to food and water ad libitum. Animals were maintained on a 12/12-hour light/dark cycle in a temperature—(22±2° C.) and humidity—(35-50%) controlled room. Animals were numbered consecutively by tail ID. Each cage was identified by a colored card indicating the study number, sex, animal numbers and date of birth.
Test article formulations were prepared fresh based on weight-to-volume in the vehicle on dosing day. […] The appearance of the formulations was clear, with no precipitations.
The tail suspension test is an experimental method used in scientific research to measure a state of being helpless in rodents, especially in mice. It is based on the observation that if a mouse is subjected to short term inescapable stress then the mice will give up struggling. “Immobility” is quantified by measuring the amount of time during which the animal has no whole-body activity.
Tail Suspension Test (TST). A piezoelectric sensor operated by the SmartCage system was utilized and video recording was conducted for scoring. Once animals were acclimated to the testing room, the TST was initiated by placing the tail of the test mouse onto the piezoelectric sensor-board and hanging the mouse upside down. The recording period was initiated once the mouse was upside down and lasted for 6 min. After the recording period, the mouse was removed from the recording device and returned to its home cage.

[1] = In vitro stability in human plasma; type: in vitro ADME; settings: for half-life at 2 μM / % Remaining / Analyte Peak area/IS Peak area Mean (N = 2): human plasma, 2.0 μM; for % Remaining at 60 min (Mean): Human plasma, final concentration 2 μM
Description: Test Article Solutions: COMPOUND A, COMPOUND B and COMPOUND C stock solutions at 10 mM were prepared in dimethyl sulfoxide (DMSO). Further dilution with DMSO was made to prepare 2.0 mM. The working solutions of 50 μM was prepared with 20% MeOH/water. […] Prior to use, the stock solutions were brought to room temperature and thoroughly mixed and prepared same as described above.
Incubations were conducted in 96-well plate format. The time points defined for this study are 0, 5, 15, 30 and 60 minutes.
An appropriate volume of plasma from test species were added to a 96-deep well plate, and COMPOUND A, COMPOUND B and COMPOUND C working solution was spiked into the plasma in duplicate to achieve a final concentration of 2.0 μM. For positive controls, the rat plasma was spiked with enalapril, the dog plasma spiked with bisacodyl and the human plasma was spiked with propantheline. All spiked plasma sample plates were incubated in a water bath at 37° C. with shaking.
At the end of each time point, samples were immediately quenched with three volume of cold quenching solution.
(§1) A study was conducted to examine the plasma stability. Test Compounds: COMPOUND D, COMPOUND E, and Viloxazine. Positive controls: Enalapril and Propantheline.

[2] = Metabolic stability in human intestinal homogenate; type: in vitro ADME; settings: for half-life at 1 μM / microsomal CLint at 1 μM: pH 7.2
Description: Incubation Buffer (PBK): 50 mM potassium phosphate buffer (PBK) was prepared from 1 M potassium phosphate buffer, pH 7.2. […] The dilution of 1 mM intermediate was prepared from 10 mM stock with 90% methanol/water, then […] working solutions were prepared by diluting the 1 mM intermediates with 50 mM PBK. […] Prior to use, the stock solutions were brought to room temperature and thoroughly mixed. […] Cofactors Solutions: the cofactor solution was made at 10 mM of NADPH (nicotinamide-adenine dinucleotide phosphate, reduced form) in 50 mM PBK buffer.
The incubation was carried out in 96-well plates. The intestinal homogenate mixture solution was added to 96-well plates (80 μL/well) in duplicate. […] Reaction was initiated by adding cofactor solution at 10 µL/well. The plates were incubated at 37° C. in a water bath with shaking. […] The final organic solvent content in the incubation was ≤1%.
At specified time points, i.e., 5, 10, 20, 30 and 60 minutes, NCF60 (no cofactor at 60 min, without adding NADPH replaced with 50 mM PBK buffer) reaction was stopped by adding three volumes of stop solution. The time zero (To) samples were prepared by adding three volumes of stop solution to intestinal homogenate samples, followed by addition of test article or control, and cofactor solution 10 μL/well.
Subsequently, 100 μL of supernatant was removed from each well, diluted with 100 μL pure water and analyzed by LC/MS/MS.
A study was conducted to examine the metabolic stability. […] Positive controls: 7-hydroxycoumarin and Testosterone.

[3] = Preclinical PK: plasma viloxazine after PO dosing of COMPOUND D or COMPOUND E; type: in vivo, mouse; settings: individual mice
Description: A study was conducted for preclinical PK performance of COMPOUND D and COMPOUND E. Please see below for details on the study, with fasted mice orally dosed with COMPOUND D or COMPOUND E.
Relevant data are summarized in below tables (ND=Not determined (Parameters not determined due to inadequately defined terminal elimination phase. BQL=Below the lower limit of quantitation (LLOQ). If the adjusted rsq (linear regression coefficient of the concentration value on the terminal phase) is less than 0.9, T1/2 might not be accurately estimated. If the % AUCExtra>20%, AUC0-inf, Cl, MRT0-inf and Vdss might not be accurately estimated. If the % AUMCExtra>20%, MRT0-inf and Vdss might not be accurately estimated. a: Bioavailability (%) was calculated using AUC0-inf (% AUCExtra<20%) or AUC0-last (% AUCExtra>20%) with nominal dose)

[4] = Plasma stability in rat plasma; type: in vitro ADME, Sprague Dawley rat; settings: final concentration 2 μM
Description: as §1
A study was conducted to examine the bioanalytical data for compounds in Rat plasma. Frozen Sprague Dawley rat (male pooled) and human (mixed gender) plasma was utilized for the study. Test compounds were dissolved in dimethyl sulfoxide (DMSO) to make a 10 mM stock solution. A working solution was made with MeOH/water. COMPOUND E ([…]) was incubated with plasma in duplicates at 37° C. in a water bath. Sampling timepoints included 0, 5, 15, 30, and 60 min Enalapril and propantheline were used as positive control for rat and human plasma at 2 μM

[5] = type: in vitro ADME, mouse; settings: mice Blood, wet ice bath, 5% Paraoxon ethyl as stabilizer; for % stability: 0.5 hr
[6] = human intestinal homogenate, 1 μM, 0 min
[7] = human intestinal homogenate, 1 μM, 5 min
[8] = human intestinal homogenate, 1 μM, 10 min
[9] = human intestinal homogenate, 1 μM, 20 min
[10] = human intestinal homogenate, 1 μM, 30 min
[11] = human intestinal homogenate, 1 μM, 60 min
[12] = human intestinal homogenate, 1 μM, NCF60 (no cofactor at 60 min)
[13] = human intestinal homogenate, 1 μM
[14] = human intestinal homogenate, 1 μM, read-out: CLint(HIH)
[15] = intestinal homogenate, Human intestinal homogenates
[16] = intestinal homogenate, Human intestinal homogenates, read-out: CLint(mic.)

Compound: CCOc1ccccc1OC[C@@H]1CN(C(=O)OC(OC(=O)[C@H](N)C(C)C)C(C)C)CCO1 (stereo partly shown) [COMPOUND C]
- home cage activity (activity, rearing, distance, velocity) (locomotor activity; COMPOUND C 10, 30, 60 and 90 mg/kg PO): no significant effect on daytime or nighttime activity measurements
- percent immobility time (immobility; COMPOUND C 30 mg/kg PO, dose-response study, vs vehicle): tendency in decreasing immobility
- percent immobility time (immobility; COMPOUND C 30 mg/kg PO, follow-up study, vs vehicle (p=0.43)): no significant reduction in immobility
- percent immobility time (immobility; COMPOUND C 10, 30, 60, 90 mg/kg PO 30 min prior, ANOVA across all doses): no significant reduction in immobility
- half-life at 2 μM [1]: > 187 min
- % Remaining ([1]; 0 min): 100%
- Analyte Peak area/IS Peak area Mean (N = 2) ([1]; 0 min): 1.99
- % Remaining ([1]; 5 min): 92.3%
- Analyte Peak area/IS Peak area Mean (N = 2) ([1]; 5 min): 1.84
- % Remaining ([1]; 15 min): 88.3%
- Analyte Peak area/IS Peak area Mean (N = 2) ([1]; 15 min): 1.76
- % Remaining ([1]; 30 min): 86.1%
- Analyte Peak area/IS Peak area Mean (N = 2) ([1]; 30 min): 1.71
- % Remaining ([1]; 60 min): 84.4%
- Analyte Peak area/IS Peak area Mean (N = 2) ([1]; 60 min): 1.68
- % Remaining [2, 6]: 100%
- Analyte Peak area/IS Peak area Mean (n = 2) [2, 6]: 0.286
- % Remaining [2, 7]: 4.4%
- Analyte Peak area/IS Peak area Mean (n = 2) [2, 7]: 0.013
- % Remaining [2, 8]: 3.0%
- Analyte Peak area/IS Peak area Mean (n = 2) [2, 8]: 0.009
- % Remaining [2, 9]: 1.3%
- Analyte Peak area/IS Peak area Mean (n = 2) [2, 9]: 0.004
- % Remaining [2, 10]: 0.67%
- Analyte Peak area/IS Peak area Mean (n = 2) [2, 10]: 0.002
- % Remaining [2, 11]: 0.08%
- Analyte Peak area/IS Peak area Mean (n = 2) [2, 11]: 0.000
- % Remaining [2, 12]: 0.12%
- Analyte Peak area/IS Peak area Mean (n = 2) [2, 12]: 0.000
- half-life at 1 μM [2, 13]: 7.2 min
- microsomal CLint at 1 μM [2, 14]: 192 µL/min/mg

Compound: CCOc1ccccc1OC[C@@H]1CN(C(=O)OC(C)OC(=O)[C@@H](N)C(C)C)CCO1 (stereo partly shown) [COMPOUND A]
- home cage activity (activity, rearing, distance, velocity) (locomotor activity; COMPOUND A 10, 30 and 90 mg/kg PO): no significant effect on daytime or nighttime activity measurements
- decrease of immobility compared to vehicle (immobility; COMPOUND A 32 mg/kg PO): 30%
- percent immobility time (immobility; COMPOUND A 4, 8, 16, 32 mg/kg PO, ANOVA p=0.006): significant reduction in immobility
- half-life at 2 μM [1]: 94.9 min
- % Remaining ([1]; 0 min): 100%
- Analyte Peak area/IS Peak area Mean (N = 2) ([1]; 0 min): 2.31
- % Remaining ([1]; 5 min): 107%
- Analyte Peak area/IS Peak area Mean (N = 2) ([1]; 5 min): 2.46
- % Remaining ([1]; 15 min): 93.1%
- Analyte Peak area/IS Peak area Mean (N = 2) ([1]; 15 min): 2.15
- % Remaining ([1]; 30 min): 80.8%
- Analyte Peak area/IS Peak area Mean (N = 2) ([1]; 30 min): 1.86
- Analyte Peak area/IS Peak area Mean (N = 2) ([1]; 60 min): 1.57
- % Remaining [2, 6]: 100%
- Analyte Peak area/IS Peak area Mean (n = 2) [2, 6]: 0.269
- % Remaining [2, 7]: 0%
- Analyte Peak area/IS Peak area Mean (n = 2) [2, 7]: 0.000
- % Remaining [2, 8]: 0%
- Analyte Peak area/IS Peak area Mean (n = 2) [2, 8]: 0.000
- % Remaining [2, 9]: 0%
- Analyte Peak area/IS Peak area Mean (n = 2) [2, 9]: 0.000
- % Remaining [2, 10]: 0%
- Analyte Peak area/IS Peak area Mean (n = 2) [2, 10]: 0.000
- % Remaining [2, 11]: 0%
- Analyte Peak area/IS Peak area Mean (n = 2) [2, 11]: 0.000
- % Remaining [2, 12]: 0%
- Analyte Peak area/IS Peak area Mean (n = 2) [2, 12]: 0.000
- half-life at 1 μM [2, 13]: < 2.5 min

Compound: CCOc1ccccc1OCC1CN(C(=O)OC(C)OC(=O)[C@H](N)C(C)C)CCO1 (stereo partly shown) [COMPOUND D]
- Plasma concentration of Viloxazine ([3]; COMPOUND D PO 19.74 mg/kg, 8.00 h): BQL
- Plasma concentration of Viloxazine ([3]; COMPOUND D PO 19.74 mg/kg, 24.0 h): BQL
- % Remaining at 60 min (Mean) [4]: 0.0%
- % Remaining at 60 min (Mean) [1]: 77.1%
- Mean peak area ([5]; HQC, 0 hr sample): 1.315
- % stability ([5]; HQC): 52%
- Mean peak area ([5]; HQC, 0.5 hr sample): 0.682
- Mean peak area ([5]; LQC, 0 hr sample): 0.00479
- % stability ([5]; LQC): 54.7%
- Mean peak area ([5]; LQC, 0.5 hr sample): 0.00262
- % Remaining at 60 min ([2]; Human intestinal homogenates): 0.00%
- half-life at 1 μM [2, 15]: 0.85 min
- microsomal CLint at 1 μM [2, 16]: 1630 µL/min/mg

Compound: CCOc1ccccc1OCC1CN(C(=O)OC(OC(=O)[C@@H](N)C(C)C)C(C)C)CCO1 (stereo partly shown) [COMPOUND E]
- Plasma concentration of Viloxazine ([3]; COMPOUND E PO 20.99 mg/kg, 8.00 h): BQL
- Plasma concentration of Viloxazine ([3]; COMPOUND E PO 20.99 mg/kg, 24.0 h): BQL
- % Remaining at 60 min (Mean) [4]: 0.0%
- % Remaining at 60 min (Mean) [1]: 90.3%
- Mean peak area ([5]; HQC, 0 hr sample): 2.903
- % stability ([5]; HQC): 103%
- Mean peak area ([5]; HQC, 0.5 hr sample): 3.00
- Mean peak area ([5]; LQC, 0 hr sample): 0.00933
- % stability ([5]; LQC): 86.3%
- Mean peak area ([5]; LQC, 0.5 hr sample): 0.00806
- % Remaining at 60 min ([2]; Human intestinal homogenates): 0.90%
- half-life at 1 μM [2, 15]: 10.8 min
- microsomal CLint at 1 μM [2, 16]: 128 µL/min/mg

Compound: CCOc1ccccc1OC[C@@H]1CN(C(=O)OC(OC(=O)[C@@H](N)C(C)C)C(C)C)CCO1 (stereo partly shown) [COMPOUND B]
- half-life at 2 μM [1]: > 187 min
- % Remaining ([1]; 0 min): 100%
- Analyte Peak area/IS Peak area Mean (N = 2) ([1]; 0 min): 1.90
- % Remaining ([1]; 5 min): 90.6%
- Analyte Peak area/IS Peak area Mean (N = 2) ([1]; 5 min): 1.72
- % Remaining ([1]; 15 min): 94.5%
- Analyte Peak area/IS Peak area Mean (N = 2) ([1]; 15 min): 1.79
- % Remaining ([1]; 30 min): 87.1%
- Analyte Peak area/IS Peak area Mean (N = 2) ([1]; 30 min): 1.65
- % Remaining ([1]; 60 min): 91.5%
- Analyte Peak area/IS Peak area Mean (N = 2) ([1]; 60 min): 1.73
- % Remaining [2, 6]: 100%
- Analyte Peak area/IS Peak area Mean (n = 2) [2, 6]: 0.275
- % Remaining [2, 7]: 7.3%
- Analyte Peak area/IS Peak area Mean (n = 2) [2, 7]: 0.020
- % Remaining [2, 8]: 7.1%
- Analyte Peak area/IS Peak area Mean (n = 2) [2, 8]: 0.020
- % Remaining [2, 9]: 6.1%
- Analyte Peak area/IS Peak area Mean (n = 2) [2, 9]: 0.017
- % Remaining [2, 10]: 2.7%
- Analyte Peak area/IS Peak area Mean (n = 2) [2, 10]: 0.007
- % Remaining [2, 11]: 0.57%
- Analyte Peak area/IS Peak area Mean (n = 2) [2, 11]: 0.002
- % Remaining [2, 12]: 0.8%
- Analyte Peak area/IS Peak area Mean (n = 2) [2, 12]: 0.002
- half-life at 1 μM [2, 13]: 10.3 min
- microsomal CLint at 1 μM [2, 14]: 135 µL/min/mg
